The values that follow are results of earlier work, collected in US7276520B2, “Bicyclic piperidine derivatives as melanocortin-4 receptor agonists” (Merck & Co., Inc., priority 2003, dated 2007).

One data set concerns erectile dysfunction. The following applies: for duration of effect / onset of action: after an oral dose; for share of men/patients in whom the drug is effective (adequate response): oral.
Data set [1] has as its system males with psychogenic erectile dysfunction.
For data set [2] the following is noted: in vivo, po.

Turning to `Cc1ccc(N(CC2=NCCN2)c2cccc(O)c2)cc1` [phentolamine], in the data set with erectile dysfunction, the duration of effect is 2 h, the onset of action is 5 to 30 min and the “share of men/patients in whom the drug is effective (adequate response)” value is recorded as 35-40%.
`CCCc1nn(C)c2c(=O)[nH]c(-c3cc(S(=O)(=O)N4CCN(C)CC4)ccc3OCC)nc12` [sildenafil]: in the data set with erectile dysfunction, the duration of effect result is on record as “about 4 hours”, the onset of action is 30 to 60 min and the “share of men/patients in whom the drug is effective (adequate response)” value is “about 70%”.
Take “Ac-Nle-c[Asp-His-DPhe-Arg-Trp-Lys]-NH2 [MT-II]”: the response rate in data set [1] (injected intramuscularly or subcutaneously, psychogenic erectile dysfunction) is on record as 75%. In data set [1] (subcutaneous injection), the duration of action result is “approximately 2.5 hours” and the “time to onset of erection” value was 10 to 20 min. Further, in data set [2], the “absorption into the systemic circulation” value is on record as “not absorbed into the systemic circulation”.
